According to patent publication US12617762B2, “Carboxy derivatives with antiinflamatory properties” (Sitryx Therapeutics Limited, priority 2019, dated 2026):
Read-outs that look alike come from different tables or passages of the source.

Columns and labels:
[1] = tested on: IL-1β cytokine output from THP-1s; assay: THP-1 AlphaLISA IL-1β cytokine inhibition assay; format: cell-based; settings: for IC50: Homo sapiens, THP-1, differentiated THP-1 cells, LPS then nigericin; for IL-1β lowering, result in words: THP-1 IL-1β assay
In short: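 IL-1β release by AlphaLISA, expressed as % inhibition against +/− LPS controls on each plate. Differentiation: PMA, 72 h. Sequence: 30 min compound pre-treatment, LPS 24 h, Nigericin 1 h before supernatant harvest, all at 37° C./5% CO2.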

[2] = Hepatocyte stability assay, mouse; format: in vitro ADME; settings: mouse, hepatocytes; for hepatocyte CLint at 10 μM: Hepatocyte stability Clint; for half-life at 10 μM: Hepatocyte stability T½
Source text: (§1) Defrosted cryo-preserved hepatocytes (viability >70%) were used to determine the metabolic stability of a compound via calculation of intrinsic clearance (CIint; a measure of the removal of a compound from the liver in the absence of blood flow and cell binding). Clearance data are particularly important for in vitro work as they can be used in combination with in vivo data to predict the half-life and oral bioavailability of a drug.
(§2) The metabolic stability in hepatocytes assay involves a time-dependent reaction using both positive and negative controls. The cells were pre-incubated at 37° C. then spiked with test compound (and positive control); samples were taken at pre-determined time intervals and were analysed to monitor the change in concentration of the initial drug compound over 60 minutes. A buffer incubation reaction (with no hepatocytes present) acted as a negative control and two cocktail solutions, containing compounds with known high and low clearance values (verapamil/7-hydroxycoumarin and propranolol/diltiazem), acted as positive controls. • 1. The assay was run with a cell concentration of 0.5×10^6 cells/mL in Leibovitz buffer. • 2. All compounds and controls were run in duplicate. • 3. Compound concentration was 10 μM. • 4. All compounds and controls were incubated with both cells and buffer to show turnover was due to hepatic metabolism. • 5. All wells on the incubation plate had 326.7 μL of either cells or buffer added. • 6. Prior to assay, cell and buffer-only incubation plates were preincubated for 10 mins at 37° C. • 7. The assay was initiated by adding compounds, 3.3 μL of 1 mM in 10% DMSO—90% Buffer; final DMSO concentration was 0.1%. • 8. Samples were taken at regular timepoints (0, 5, 10, 20, 40, 60 min) until 60 mins. • 9. Sample volume was 40 μL and was added to 160 μL of crash solvent (acetonitrile with internal standard) and stored on ice. • 10. At the end of the assay, the crash plates were centrifuged at 3500 rpm for 20 mins at 4° C. • 11. 80 μL of clear supernatant was removed and mixed with 80 μL of deionised water before being analysed by LC-MS/MS.
(§3) Raw LC-MS/MS data was exported to, and analysed in, Microsoft Excel for determination of intrinsic clearance. The percentage remaining of a compound was monitored using the peak area of the initial concentration as 100%. Intrinsic clearance and half-life values were calculated using a graph of the natural log of percentage remaining versus the time of reaction in minutes.

[3] = Hepatocyte stability assay, human; format: in vitro ADME; settings: human, hepatocytes; for hepatocyte CLint at 10 μM: Hepatocyte stability Clint; for half-life at 10 μM: Hepatocyte stability T½
Source text: as §1, §2, §3

[4] = tested on: NRF2 (nuclear factor erythroid 2-related factor 2); assay: NRF2 +/-GSH activation assay (DiscoverX PathHunter NRF2 translocation kit, U2OS cells); format: cell-based; settings: for NRF2 activation +GSH Emax / NRF2 activation −GSH Emax: normalised to DMF high control
Procedure: Measuring Compound Activation Effects on the Anti-Inflammatory Transcription Factor NRF2 in DiscoverX PathHunter NRF2 Translocation Kit
Potency and efficacy of compounds of formula (I) against the target of interest to activate NRF2 (nuclear factor erythroid 2-related factor 2) were determined using the PathHunter NRF2 translocation kit (DiscoverX). The NRF2 translocation assay was run using an engineered recombinant cell line, utilising enzyme fragment complementation to determine activation of the Keap1-NRF2 protein complex and subsequent translocation of NRF2 into the nucleus. Enzyme activity was quantified using a chemiluminescent substrate consumed following the formation of a functional enzyme upon PK-tagged NRF2 translocation into the nucleus.
The assay was run under both +/−GSH (glutathione) conditions to determine the sensitivity of the compounds' NRF2-activating abilities to attenuation by GSH.
Additionally, a defined concentration of DMF was used as the ‘High’ control to normalise test compound activation responses to.
U2OS PathHunter eXpress cells were thawed from frozen prior to plating. Following plating, U2OS cells were incubated for 24 hrs (37° C./5% CO2) in commercial kit provided cell medium.
Following 24 hrs of U2OS incubation, cells were directly treated with an appropriate final concentration of compound, for −GSH conditions or, for +GSH conditions, an intermediate plate containing 6× working concentrations of compound stocks was prepared in a 6 mM working concentration of GSH solution (solubilised in sterile PBS). Following a 30 minute compound-GSH pre-incubation (37° C./5% CO2) for +GSH treatment, plated U2OS cells were incubated with an appropriate final concentration of compound and GSH.
Following compound (+/−GSH) treatment, the U2OS plates were incubated for a further 6 hours (37° C./5% CO2) before detection reagent from the PathHunter NRF2 commercial kit was prepared and added to test plates according to the manufacturer's instructions. Subsequently, the luminescence signal detection was measured in a microplate reader (PHERAstar®, BMG Labtech).
Percentage activation was calculated by normalising the sample data to the high and low controls used within each plate (+/−DMF).

[5] = +GSH, 30 minute compound-GSH pre-incubation, read-out: NRF2 activation +GSH EC50
[6] = −GSH, U2OS PathHunter cells, 6 hours compound treatment, read-out: NRF2 activation −GSH EC50

Row | SMILES | IC50 [1] | hepatocyte CLint at 10 μM [2] | hepatocyte CLint at 10 μM [3] | EC50 [4, 5] | NRF2 activation +GSH Emax ([4]; +GSH) | EC50 [4, 6] | NRF2 activation −GSH Emax ([4]; −GSH) | half-life at 10 μM [2] | half-life at 10 μM [3] | IL-1β lowering, result in words [1]
1 | C=C(Cc1ccccc1Cl)C(=O)O [2-(2-chlorobenzyl)acrylic acid, reference compound] | > 100 µM | 95 µL/min/1e6 cells | 21 µL/min/1e6 cells | > 100 µM | 9% | > 100 µM | 2% | – | – | –
2 | C=C(Cc1nnc(CCCCCCCC)o1)C(=O)O [Example 2, 2-((5-octyl-1,3,4-oxadiazol-2-yl)methyl)acrylic acid] | 36.8 µM | 74 µL/min/1e6 cells | 95 µL/min/1e6 cells | 26.8 µM | 169% | 19.1 µM | 176% | 19 min | 15 min | –
3 | C=C(Cc1nc(Cc2ccc(Cl)cc2)no1)C(=O)O [Example 4, 2-((3-(4-chlorobenzyl)-1,2,4-oxadiazol-5-yl)methyl)acrylic acid] | 49.3 µM | 13 µL/min/1e6 cells | < 3 µL/min/1e6 cells | > 100 µM | 23% | 40.5 µM | 47% | 93 min | > 460 min | –
4 | C=C(Cc1nc(CCc2ccc(Cl)cc2)no1)C(=O)O [Example 5, 2-((3-(4-chlorophenethyl)-1,2,4-oxadiazol-5-yl)methyl)acrylic acid] | 45.3 µM | 48 µL/min/1e6 cells | 8 µL/min/1e6 cells | 50.4 µM | 63% | 42.4 µM | 74% | 40 min | 174 min | –
5 | C=C(Cc1nc(-c2ccc(Cl)cc2)no1)C(=O)O [Example 7, 2-((3-(4-chlorophenyl)-1,2,4-oxadiazol-5-yl)methyl)acrylic acid] | > 100 µM | 28 µL/min/1e6 cells | < 6 µL/min/1e6 cells | 44.5 µM | 89% | 39.7 µM | 113% | 49 min | > 320 min | not effective
6 | C=C(Cc1nc(Cc2ccc3ccccc3c2)no1)C(=O)O [Example 9, 2-((3-(naphthalen-2-ylmethyl)-1,2,4-oxadiazol-5-yl)methyl)acrylic acid] | 54.7 µM | 41 µL/min/1e6 cells | 7 µL/min/1e6 cells | 69.9 µM | 44% | 42.7 µM | 51% | 25 min | 181 min | –
7 | C=C(Cc1nc(CCCCCCCC(F)(F)F)no1)C(=O)O [Example 11, 2-((3-(8,8,8-trifluorooctyl)-1,2,4-oxadiazol-5-yl)methyl)acrylic acid] | 8.2 µM | 56 µL/min/1e6 cells | 30 µL/min/1e6 cells | 13.1 µM | 149% | 11.4 µM | 185% | 18 min | 42 min | –
8 | C=C(Cc1nc(C(C)(C)CCCCC)no1)C(=O)O [Example 12, 2-((3-(2-methylheptan-2-yl)-1,2,4-oxadiazol-5-yl)methyl)acrylic acid] | > 100 µM | 15 µL/min/1e6 cells | 16 µL/min/1e6 cells | 61.9 µM | 73% | 53.1 µM | 85% | 90 min | 90 min | not effective
9 | C=C(Cc1nc(Cc2ccc(Cl)c(Cl)c2)no1)C(=O)O [Example 14, 2-((3-(3,4-dichlorobenzyl)-1,2,4-oxadiazol-5-yl)methyl)acrylic acid] | > 100 µM | 18 µL/min/1e6 cells | 6 µL/min/1e6 cells | 52.2 µM | 46% | 21.8 µM | 78% | 72 min | 240 min | not effective
10 | C=C(Cc1nc(C2(c3ccc(C4CCC4)cc3)CC2)no1)C(=O)O [Example 131, 2-((3-(1-(4-cyclobutylphenyl)cyclopropyl)-1,2,4-oxadiazol-5-yl)methyl)acrylic acid] | 7.9 µM | 139 µL/min/1e6 cells | 34 µL/min/1e6 cells | – | – | – | – | 11 min | 43 min | –
11 | C=C(Cc1nc(Cc2cc(Cl)c(F)c(Cl)c2)no1)C(=O)O [Example 134, 2-((3-(3,5-dichloro-4-fluorobenzyl)-1,2,4-oxadiazol-5-yl)methyl)acrylic acid] | 15.8 µM | 17 µL/min/1e6 cells | 13 µL/min/1e6 cells | – | – | – | – | 75 min | 112 min | –
12 | C=C(Cc1nc(C2(c3ccc(Br)c(Cl)c3)CC2)no1)C(=O)O [Example 138, 2-((3-(1-(4-bromo-3-chlorophenyl)cyclopropyl)-1,2,4-oxadiazol-5-yl)methyl)acrylic acid] | 3 µM | > 460 µL/min/1e6 cells | 96 µL/min/1e6 cells | – | – | – | – | < 3 min | 15 min | –
13 | C=C(Cc1nc(Cc2ccc(C3(CCC)CC3)cc2)no1)C(=O)O [Example 147, 2-((3-(4-(1-propylcyclopropyl)benzyl)-1,2,4-oxadiazol-5-yl)methyl)acrylic acid] | 29.9 µM | > 460 µL/min/1e6 cells | 67 µL/min/1e6 cells | – | – | – | – | < 3 min | 22 min | –
14 | C=C(Cc1nc(C(F)(F)c2ccc(C)c(Cl)c2)no1)C(=O)O [Example 151, 2-((3-((3-chloro-4-methylphenyl)difluoromethyl)-1,2,4-oxadiazol-5-yl)methyl)acrylic acid] | 22.7 µM | 105 µL/min/1e6 cells | 53 µL/min/1e6 cells | – | – | – | – | 19 min | 23 min | –
15 | C=C(Cc1nc(C(F)(F)c2cc(Cl)c(F)c(Cl)c2)no1)C(=O)O [Example 153, 2-((3-((3,5-dichloro-4-fluorophenyl)difluoromethyl)-1,2,4-oxadiazol-5-yl)methyl)acrylic acid] | 17.3 µM | 44 µL/min/1e6 cells | 23 µL/min/1e6 cells | – | – | – | – | 34 min | 62 min | –
16 | C=C(Cc1nc(C(F)(F)c2ccc(Br)c(Cl)c2)no1)C(=O)O [Example 154, 2-((3-((4-bromo-3-chlorophenyl)difluoromethyl)-1,2,4-oxadiazol-5-yl)methyl)acrylic acid] | 9.5 µM | 203 µL/min/1e6 cells | 41 µL/min/1e6 cells | – | – | – | – | 7 min | 35 min | –
